{
  "source": "ChEMBL document CHEMBL1201862",
  "about": "“PubChem BioAssay data set” (2004)",
  "test_in_all_cases": "DTP human tumour cell line panel, 48 h",
  "key": {"[1]": {"system": "LOX IMVI"}, "[2]": {"system": "HCC 2998"}, "[3]": {"system": "HOP-62"}, "[4]": {"system": "MDA-MB-435"}, "[5]": {"system": "RXF 393"}, "[6]": {"system": "SR"}, "[7]": {"system": "A549"}, "[8]": {"system": "OVCAR-4"}, "[9]": {"system": "MDA-N"}, "[10]": {"system": "KM12"}, "[11]": {"system": "U-251"}, "[12]": {"system": "NCI-H226"}, "[13]": {"system": "TK-10"}, "[14]": {"system": "HT-29"}, "[15]": {"system": "HL-60"}, "[16]": {"system": "HCT-15"}, "[17]": {"system": "COLO 205"}, "[18]": {"system": "SF-539"}, "[19]": {"system": "NCI-H460"}, "[20]": {"system": "SK-MEL-28"}},
  "note": "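How tested: cells in 96-well plates exposed to compound for 48 hours at five concentrations. Here, GI50 denotes the concentration required for 50% inhibition of growth.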 Activity calls are given as the source filed them. Cut-off read from the data, not from the text of the source: active = GI50 up to about 1.1 µM and inactive = higher.",
  "data": [
    {"compound": "C[C@]12C=CC(=O)C=C1CC[C@@H]1[C@@H]2CC[C@]2(C)OC(=O)CC[C@@H]12", "note": "[TESTOLACTONE]", "values": [
      {"measurement": "GI50", "setting": "[1]", "result": "> 492 µM (inactive)"},
      {"measurement": "GI50", "setting": "[2]", "result": "372 µM (inactive)"},
      {"measurement": "GI50", "setting": "[3]", "result": "> 467 µM (inactive)"},
      {"measurement": "GI50", "setting": "[4]", "result": "> 500 µM (inactive)"},
      {"measurement": "GI50", "setting": "[5]", "result": "437 µM (inactive)"},
      {"measurement": "GI50", "setting": "[6]", "result": "318 µM (inactive)"},
      {"measurement": "GI50", "setting": "[7]", "result": "447 µM (inactive)"},
      {"measurement": "GI50", "setting": "[8]", "result": "486 µM (inactive)"},
      {"measurement": "GI50", "setting": "[9]", "result": "> 500 µM (inactive)"},
      {"measurement": "GI50", "setting": "[10]", "result": "> 500 µM (inactive)"},
      {"measurement": "GI50", "setting": "[11]", "result": "> 500 µM (inactive)"},
      {"measurement": "GI50", "setting": "[12]", "result": "417 µM (inactive)"},
      {"measurement": "GI50", "setting": "[13]", "result": "499 µM (inactive)"},
      {"measurement": "GI50", "setting": "[14]", "result": "> 493 µM (inactive)"},
      {"measurement": "GI50", "setting": "[15]", "result": "310 µM (inactive)"},
      {"measurement": "GI50", "setting": "[16]", "result": "> 488", "unit": "µM"},
      {"measurement": "GI50", "setting": "[17]", "result": "480 µM (inactive)"},
      {"measurement": "GI50", "setting": "[18]", "result": "454 µM (inactive)"},
      {"measurement": "GI50", "setting": "[19]", "result": "484 µM (inactive)"},
      {"measurement": "GI50", "setting": "[20]", "result": "498 µM (inactive)"}
    ]}
  ]
}
